Measurements reported in ChEMBL document CHEMBL1154199, “Design, synthesis and evaluation of novel 5,6-dimethoxy-1-oxo-2,3-dihydro-1H-2-indenyl-3,4-substituted phenyl methanone analogues” (Bioorg Med Chem Lett, 2009).

Target: Acetylcholinesterase (Electrophorus electricus, UniProt O42275)
Test: Inhibition of Electrophorus electricus AChE by Ellman's method
Details: not given; call rule not given here

Sequence of Acetylcholinesterase (O42275 whole entry): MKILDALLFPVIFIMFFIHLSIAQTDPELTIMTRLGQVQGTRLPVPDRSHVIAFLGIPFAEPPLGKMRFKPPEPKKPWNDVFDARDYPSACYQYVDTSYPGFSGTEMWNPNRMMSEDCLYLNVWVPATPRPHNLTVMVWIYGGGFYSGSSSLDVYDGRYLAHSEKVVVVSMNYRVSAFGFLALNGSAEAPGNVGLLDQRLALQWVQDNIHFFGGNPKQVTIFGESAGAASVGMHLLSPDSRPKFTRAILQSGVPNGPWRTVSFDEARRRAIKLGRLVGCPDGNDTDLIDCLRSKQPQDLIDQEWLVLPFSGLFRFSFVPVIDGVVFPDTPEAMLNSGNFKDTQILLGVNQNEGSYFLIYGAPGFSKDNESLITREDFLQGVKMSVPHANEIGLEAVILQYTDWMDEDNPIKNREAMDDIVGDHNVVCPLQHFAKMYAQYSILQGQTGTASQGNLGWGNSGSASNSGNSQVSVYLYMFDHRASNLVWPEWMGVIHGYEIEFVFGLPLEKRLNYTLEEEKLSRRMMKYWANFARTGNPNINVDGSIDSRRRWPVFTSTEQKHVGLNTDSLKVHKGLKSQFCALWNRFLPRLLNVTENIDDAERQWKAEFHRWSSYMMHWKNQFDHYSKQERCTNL

Q: How did the IC50 turn out when `COc1cc2c(cc1OC)C(=O)C(C(=O)c1cccc([N+](=O)[O-])c1)C2` (centres undefined) was run?
A: The IC50 was “Not Active”.

Same assay, conditions: read-out: IC50

Q: With `COc1cc2c(cc1OC)C(=O)C(C(=O)c1c(Cl)cccc1Cl)C2` (centres undefined) as the molecule, how does the IC50 read?
A: The IC50 was 102 µM.

Q: For `COc1cc2c(cc1OC)C(=O)C(C(=O)c1cccs1)C2` (centres undefined), which IC50 is on record?
A: Its IC50 is 8.6 µM.

Q: With `COc1cc2c(cc1OC)C(=O)C(C(=O)c1ccc(Br)cc1)C2` (centres undefined) as the molecule, how does the IC50 read?
A: The IC50 was 45 µM.

Q: Which IC50 does the source give for `COc1cc2c(cc1OC)C(=O)C(C(=O)c1ccc(C#N)cc1)C2` (centres undefined) here?
A: Its IC50 is 53 µM.

Q: How did the IC50 turn out when `COc1cc2c(cc1OC)C(=O)C(C(=O)c1ccc(N(C)C)cc1)C2` (centres undefined) was run?
A: Its IC50 is 29.4 µM.

Q: `COc1ccc(C(=O)C2Cc3cc(OC)c(OC)cc3C2=O)cc1` (centres undefined) was tested. Which IC50 did it give?
A: Its IC50 is 6.2 µM.

Q: `COc1cc2c(cc1OC)C(=O)C(C(=O)c1ccc(Cl)cc1)C2` (centres undefined) was tested. Which IC50 did it give?
A: The IC50 was 41.2 µM.

Q: How did the IC50 turn out when `COc1cc2c(cc1OC)C(=O)C(C(=O)c1ccccc1)C2` (centres undefined) was run?
A: Its IC50 is 21 µM.

Q: For `COc1ccc(C(=O)C2Cc3cc(OC)c(OC)cc3C2=O)cc1OC` (centres undefined), which IC50 is on record?
A: The IC50 was 4.3 µM.

Q: `COc1cc2c(cc1OC)C(=O)C(C(=O)c1cc(OC)c(OC)c(OC)c1)C2` (centres undefined) was tested. Which IC50 did it give?
A: Its IC50 is 2.7 µM.

Q: For `COc1cc2c(cc1OC)C(=O)C(C(=O)c1ccc(F)cc1)C2` (centres undefined), which IC50 is on record?
A: The IC50 was 42 µM.

Q: With `COc1cc2c(cc1OC)C(=O)C(C(=O)c1ccccc1Cl)C2` (centres undefined) as the molecule, how does the IC50 read?
A: The IC50 was 64 µM.

Q: How did the IC50 turn out when `COc1cc2c(cc1OC)C(=O)C(C(=O)c1ccco1)C2` (centres undefined) was run?
A: Its IC50 is 9.4 µM.
